Patent publication US8367873B2, “Phenyl-substituted bicyclooctane-1,3-dione derivatives” (Bayer Cropscience AG, priority 2008, dated 2013)

Key:
Assay type in all cases: in vivo
Alopecurus myosuroides [1] = test: Herbicidal pre-emergence action; settings: pre-emergence method, 80 g/ha, greenhouse, visual assessment vs untreated controls
Procedure, shortened: (§1)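 Visual percent damage score (100% = dead plants, 0% = as untreated control) taken three weeks after pre-emergence treatment. Compounds were wettable powders sprayed onto covering soil over seeds in sandy loam, 600 l/ha water with 0.2% wetting agent, several application amounts; pots kept in greenhouse.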

Echinocloa crus-galli [2] = test: Herbicidal pre-emergence action; settings: pre-emergence method, 80 g/ha, greenhouse, visual assessment vs untreated controls
Procedure, shortened: as §1

Lolium multiflorum [3] = test: Herbicidal pre-emergence action; settings: pre-emergence method, 80 g/ha, greenhouse, visual assessment vs untreated controls
Procedure, shortened: as §1

Setaria viridis [4] = test: Herbicidal pre-emergence action; settings: pre-emergence method, 80 g/ha, greenhouse, visual assessment vs untreated controls
Procedure, shortened: as §1

Alopecurus myosuroides [5] = test: Herbicidal post-emergence action; settings: post-emergence method; for herbicidal effect against ALOMY (Alopecurus myosuroides): 80 g/ha; for pest or weed control at 80 g/ha: Alopecurus myosuroides, 504 h, read-out: herbicidal effect against ALOMY (Alopecurus myosuroides)
Procedure, shortened: (§2)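 Greenhouse plants in sandy loam sprayed at the one-leaf stage, 2-3 weeks after sowing, with WP-formulated compound at varied rates in 600 l/ha water plus 0.2% wetting agent. Damage scored visually after about three weeks as percent effect versus untreated controls (100% = dead).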

Echinocloa crus-galli [6] = test: Herbicidal post-emergence action; settings: post-emergence method; for herbicidal effect against ECHCG (Echinochloa crus-galli): 80 g/ha; for pest or weed control at 80 g/ha: Echinochloa crus-galli, 504 h, read-out: herbicidal effect against ECHCG (Echinochloa crus-galli)
Procedure, shortened: as §2

Lolium multiflorum [7] = test: Herbicidal post-emergence action; settings: post-emergence method; for herbicidal effect against LOLMU (Lolium multiflorum): 80 g/ha; for pest or weed control at 80 g/ha: Lolium multiflorum, 504 h, read-out: herbicidal effect against LOLMU (Lolium multiflorum)
Procedure, shortened: as §2

Setaria viridis [8] = test: Herbicidal post-emergence action; settings: post-emergence method; for herbicidal effect against SETVI (Setaria viridis): 80 g/ha; for pest or weed control at 80 g/ha: Setaria viridis, 504 h, read-out: herbicidal effect against SETVI (Setaria viridis)
Procedure, shortened: as §2

[9] = tested on: monocotylidonous and dicotylidonous weed and crop plants; test: Herbicidal pre-emergence action (other test plants); settings: pre-emergence method, 80 g/ha, greenhouse, visual assessment vs untreated controls
Procedure, shortened: as §1

[10] = tested on: monocotylidonous and dicotylidonous weed and crop plants; test: Herbicidal post-emergence action (other test plants); settings: post-emergence method; for herbicidal effect against AVEFA (Avena fatua): 80 g/ha; for pest or weed control at 80 g/ha: 504 h, Avena fatua, read-out: herbicidal effect against AVEFA (Avena fatua)
Procedure, shortened: as §2

| Structure (SMILES) | herbicidal effect ALOMY (Alopecurus myosuroides [1]) [%] | herbicidal effect ECHCG (Echinocloa crus-galli [2]) [%] | herbicidal effect LOLMU (Lolium multiflorum [3]) [%] | herbicidal effect SETVI (Setaria viridis [4]) [%] | herbicidal effect against ALOMY (Alopecurus myosuroides) (Alopecurus myosuroides [5]) [%] | herbicidal effect against ECHCG (Echinochloa crus-galli) (Echinocloa crus-galli [6]) [%] | herbicidal effect against LOLMU (Lolium multiflorum) (Lolium multiflorum [7]) [%] | herbicidal effect against SETVI (Setaria viridis) (Setaria viridis [8]) [%] | herbicidal effect AVEFA [9] [%] | herbicidal effect against AVEFA (Avena fatua) [10] [%] | pest or weed control at 80 g/ha (Alopecurus myosuroides [5]) [%] | pest or weed control at 80 g/ha (Echinocloa crus-galli [6]) [%] | pest or weed control at 80 g/ha (Lolium multiflorum [7]) [%] | pest or weed control at 80 g/ha (Setaria viridis [8]) [%] | pest or weed control at 80 g/ha [10] [%] |
| --- | --- | --- | --- | --- | --- | --- | --- | --- | --- | --- | --- | --- | --- | --- | --- |
| CCc1cc(C)cc(CC)c1C1=C(OC(=O)C(C)C)C2CC3(CC2C1=O)OCC(OCc1ccccc1)CO3 (centres unmarked) [I-b-17] | 90 | 100 | 100 | 90 | 90 | 100 | 100 | 90 | 80 | 90 |  |  |  |  |  |
| CCOC(=O)OC1=C(c2c(CC)cc(C)cc2CC)C(=O)C2CC3(CC12)OC(C)(C)C(C)(C)O3 (centres unmarked) [I-c-18] | 90 | 100 | 100 | 10 | 60 | 80 | 90 | 0 | 0 | 0 |  |  |  |  |  |
| CCc1cc(C)cc(CC)c1C1=C(O)C2CC3(CC2C1=O)OC(C)CC(C)O3 (centres unmarked) [I-a-15] | 80 | 70 | 100 | 70 | 90 | 100 | 100 | 90 | 40 | 90 |  |  |  |  |  |
| CCc1cc(C)cc(CC)c1C1=C(OC(=O)C(C)(C)C)C2CC3(CC2C1=O)OCCCO3 (centres unmarked) [I-b-22] | 100 | 100 | 100 | 80 | 100 | 100 | 100 | 100 | 70 | 100 |  |  |  |  |  |
| CCc1cc(C)cc(CC)c1C1=C([O-])C2CC3(CC2C1=O)OC(C)CC(C)O3.[Na+] (centres unmarked) [I-f-2] | 90 | 90 | 100 | 60 | 80 | 100 | 100 | 90 | 50 | 90 |  |  |  |  |  |
| CCc1cc(C)cc(C)c1C1=C(O)C2CC3(COC(C)(C)O3)CC2C1=O (centres unmarked) [I-a-62] | 100 | 100 | 100 | 90 | 100 | 100 | 100 | 90 | 40 | 80 |  |  |  |  |  |
| COc1cc(C)cc(C)c1C1=C(O)C2CC3(CC2C1=O)OCC=CCO3 (centres unmarked) [I-a-49] | 100 | 100 | 100 | 90 | 100 | 100 | 100 | 100 | 90 | 100 |  |  |  |  |  |
| CCc1cc(C)cc(C)c1C1=C(OC(=O)C(C)(C)C)C2CC3(COC(C)(C)O3)CC2C1=O (centres unmarked) [I-b-70] | 100 | 100 | 100 | 90 | 70 | 100 | 100 | 40 | 80 | 0 |  |  |  |  |  |
| Cc1cc(C)c(C2=C(OC(=O)C(C)(C)C)C3CC4(CC3C2=O)OCCCCO4)c(C)c1 (centres unmarked) [I-b-40] | 90 | 50 | 100 | 30 | 40 | 90 | 100 | 80 | 50 | 20 |  |  |  |  |  |
| CCOC(=O)OC1=C(c2c(C)cc(C)cc2CC)C(=O)C2CC3(COC(C)(C)O3)CC12 (mixture of isomers) [I-c-80] | 100 | 100 | 100 | 60 | 90 | 100 | 100 | 90 | 60 | 70 |  |  |  |  |  |
| CCc1cc(C)cc(CC)c1C1=C(O)[C@H]2CC3(C[C@H]2C1=O)OCC(C)(C)CO3 (relative stereo) [I-a-9] | 90 | 100 | 100 | 90 | 60 | 100 | 90 | 90 | 70 | 60 |  |  |  |  |  |
| CCc1cc(C)cc(CC)c1C1=C(OC(C)=O)[C@H]2C[C@@]3(COC(C)(C)O3)C[C@H]2C1=O [I-b-1] | 90 | 40 | 100 | 70 |  |  |  |  | 40 |  | 100 | 100 | 100 | 40 | 60 |
| CCc1cc(C)cc(CC)c1C1=C(O)C2CC(=NOC(C)(C)C)CC2C1=O (centres unmarked) [I-a-68] | 40 | 50 | 80 | 0 | 90 | 100 | 100 | 40 | 40 | 0 |  |  |  |  |  |
| CC(=O)OC1=C(c2c(C)cc(C)cc2C)C(=O)C2CC3(COC(C)(C)O3)CC12 (mixture of isomers) [I-b-49] | 90 | 50 | 70 | 0 | 90 | 100 | 100 | 60 | 70 | 80 |  |  |  |  |  |
| CCC(=O)OC1=C(c2c(CC)cc(C)cc2CC)C(=O)C2CC3(COC(C)(C)O3)CC12 (centres unmarked) [I-b-2] | 90 | 30 | 100 | 40 | 100 | 90 | 100 | 80 | 50 | 60 |  |  |  |  |  |
| CCc1cc(C)cc(CC)c1C1=C(O)[C@H]2CC3(C[C@H]2C1=O)OCC(OCc1ccccc1)CO3 (relative stereo) [I-a-27] | 90 | 100 | 100 | 90 | 100 | 100 | 100 | 90 | 80 | 100 |  |  |  |  |  |
| C=C1CC2C(=O)C(c3c(CC)cc(C)cc3CC)=C(OC(=O)OCC)C2C1 (centres unmarked) [I-c-5, 2-(2,6-diethyl-4-methylphenyl)-5-methylidene-3-oxo-3,3a,4,5,6,6a-hexahydropentalen-1-yl ethyl carbonate] | 80 | 90 | 80 | 80 |  |  |  |  | 80 |  | 20 | 100 | 90 | 90 | 30 |
